Test results as given in ChEMBL document CHEMBL1201862, “PubChem BioAssay data set” (2004).
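Five concentrations, 48 hours, 96-well plates. GI50 marks 50% less growth.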 Active and inactive are the calls of the source. No stated cut-off is given here; in the data, active = GI50 up to about 1.1 µM and inactive = higher.

Experiments:
Assay in all cases: NCI anticancer screen, dose series, 48 h
786-0 = test system: 786-0
A498 = test system: A498
A549 = test system: A549
ACHN = test system: ACHN
CAKI-1 = test system: CAKI-1
CCRF-CEM = test system: CCRF-CEM
COLO 205 = test system: COLO 205
DLD-1 = test system: DLD-1
DMS-114 = test system: DMS-114
DMS-273 = test system: DMS-273
EKVX = test system: EKVX
HCC 2998 = test system: HCC 2998
HCT-116 = test system: HCT-116
HCT-15 = test system: HCT-15
HL-60 = test system: HL-60
HOP-18 = test system: HOP-18
HOP-62 = test system: HOP-62
HOP-92 = test system: HOP-92
HT-29 = test system: HT-29
IGROV-1 = test system: IGROV-1
K562 = test system: K562
KM-20L2 = test system: KM-20L2
KM12 = test system: KM12
LOX IMVI = test system: LOX IMVI
LXFL 529 = test system: LXFL 529
M14 = test system: M14
Malme-3M = test system: Malme-3M
NCI-H226 = test system: NCI-H226
NCI-H23 = test system: NCI-H23
NCI-H460 = test system: NCI-H460
NCI-H522 = test system: NCI-H522
OVCAR-3 = test system: OVCAR-3
OVCAR-4 = test system: OVCAR-4
OVCAR-5 = test system: OVCAR-5
OVCAR-8 = test system: OVCAR-8
RPMI-8226 = test system: RPMI-8226
RXF 393 = test system: RXF 393
SF-268 = test system: SF-268
SF-295 = test system: SF-295
SF-539 = test system: SF-539
SK-MEL-28 = test system: SK-MEL-28
SK-MEL-2 = test system: SK-MEL-2
SK-MEL-5 = test system: SK-MEL-5
SK-OV-3 = test system: SK-OV-3
SN12C = test system: SN12C
SNB-19 = test system: SNB-19
SNB-75 = test system: SNB-75
SNB-78 = test system: SNB-78
SR = test system: SR
SW-620 = test system: SW-620
TK-10 = test system: TK-10
U-251 = test system: U-251
UACC-257 = test system: UACC-257
UACC-62 = test system: UACC-62
UO-31 = test system: UO-31
XF498 = test system: XF498
M19-MEL = test system: M19-MEL
MOLT-4 = test system: MOLT-4
RXF 631 = test system: RXF 631

Compound: CCCC(N)C(=O)c1ccccc1 (stereo not drawn)
- GI50 (786-0): > 100 µM (inactive)
- GI50 (A498): > 100 µM (inactive)
- GI50 (A549): > 100 µM (inactive)
- GI50 (ACHN): > 100 µM (inactive)
- GI50 (CAKI-1): > 100 µM (inactive)
- GI50 (CCRF-CEM): > 100 µM (inactive)
- GI50 (COLO 205): > 100 µM (inactive)
- GI50 (DLD-1): > 100 µM (inactive)
- GI50 (DMS-114): > 100 µM (inactive)
- GI50 (DMS-273): > 100 µM (inactive)
- GI50 (EKVX): > 100 µM (inactive)
- GI50 (HCC 2998): > 100 µM (inactive)
- GI50 (HCT-116): > 100 µM (inactive)
- GI50 (HCT-15): > 100 µM
- GI50 (HL-60): > 100 µM (inactive)
- GI50 (HOP-18): > 100 µM (inactive)
- GI50 (HOP-62): > 100 µM (inactive)
- GI50 (HOP-92): > 100 µM (inactive)
- GI50 (HT-29): > 100 µM (inactive)
- GI50 (IGROV-1): > 100 µM (inactive)
- GI50 (K562): > 100 µM (inactive)
- GI50 (KM-20L2): > 100 µM (inactive)
- GI50 (KM12): > 100 µM (inactive)
- GI50 (LOX IMVI): > 100 µM (inactive)
- GI50 (LXFL 529): > 100 µM (inactive)
- GI50 (M14): > 100 µM (inactive)
- GI50 (Malme-3M): > 100 µM (inactive)
- GI50 (NCI-H226): > 100 µM (inactive)
- GI50 (NCI-H23): > 100 µM (inactive)
- GI50 (NCI-H460): > 100 µM (inactive)
- GI50 (NCI-H522): > 100 µM (inactive)
- GI50 (OVCAR-3): > 100 µM (inactive)
- GI50 (OVCAR-4): > 100 µM (inactive)
- GI50 (OVCAR-5): > 100 µM (inactive)
- GI50 (OVCAR-8): > 100 µM (inactive)
- GI50 (RPMI-8226): > 100 µM (inactive)
- GI50 (RXF 393): > 100 µM (inactive)
- GI50 (SF-268): > 100 µM (inactive)
- GI50 (SF-295): > 100 µM (inactive)
- GI50 (SF-539): > 100 µM (inactive)
- GI50 (SK-MEL-28): > 100 µM (inactive)
- GI50 (SK-MEL-2): > 100 µM (inactive)
- GI50 (SK-MEL-5): > 100 µM (inactive)
- GI50 (SK-OV-3): > 100 µM (inactive)
- GI50 (SN12C): > 100 µM (inactive)
- GI50 (SNB-19): > 100 µM (inactive)
- GI50 (SNB-75): > 100 µM (inactive)
- GI50 (SNB-78): > 100 µM (inactive)
- GI50 (SR): > 100 µM (inactive)
- GI50 (SW-620): > 100 µM (inactive)
- GI50 (TK-10): > 100 µM (inactive)
- GI50 (U-251): > 100 µM (inactive)
- GI50 (UACC-257): > 100 µM (inactive)
- GI50 (UACC-62): > 100 µM (inactive)
- GI50 (UO-31): > 100 µM (inactive)
- GI50 (XF498): > 100 µM (inactive)

Compound: CCC1=CCN(c2cc(C)ccn2)OC1c1ccc(OC)cc1 (stereo not drawn)
- GI50 (786-0): 34.8 µM (inactive)
- GI50 (A549): 35.2 µM (inactive)
- GI50 (ACHN): 33.5 µM (inactive)
- GI50 (CAKI-1): 34.4 µM (inactive)
- GI50 (CCRF-CEM): 23.7 µM (inactive)
- GI50 (COLO 205): 16.3 µM (inactive)
- GI50 (DLD-1): 30.2 µM (inactive)
- GI50 (DMS-114): 27.9 µM (inactive)
- GI50 (EKVX): 40.6 µM (inactive)
- GI50 (HCC 2998): 40.6 µM (inactive)
- GI50 (HCT-116): 21.2 µM (inactive)
- GI50 (HCT-15): 27.3 µM
- GI50 (HL-60): 22.5 µM (inactive)
- GI50 (HOP-62): 44.3 µM (inactive)
- GI50 (HT-29): 21.6 µM (inactive)
- GI50 (IGROV-1): 55.7 µM (inactive)
- GI50 (K562): 34 µM (inactive)
- GI50 (KM-20L2): 30.3 µM (inactive)
- GI50 (KM12): 31.2 µM (inactive)
- GI50 (LOX IMVI): 30.1 µM (inactive)
- GI50 (LXFL 529): 28.6 µM (inactive)
- GI50 (M14): 32.5 µM (inactive)
- GI50 (M19-MEL): 31.5 µM (inactive)
- GI50 (MOLT-4): 26.9 µM (inactive)
- GI50 (Malme-3M): 27 µM (inactive)
- GI50 (NCI-H226): 38.3 µM (inactive)
- GI50 (NCI-H23): 34 µM (inactive)
- GI50 (NCI-H460): 31.7 µM (inactive)
- GI50 (NCI-H522): 16 µM (inactive)
- GI50 (OVCAR-3): 42.7 µM (inactive)
- GI50 (OVCAR-4): 34.8 µM (inactive)
- GI50 (OVCAR-5): 26.5 µM (inactive)
- GI50 (OVCAR-8): 32.8 µM (inactive)
- GI50 (RPMI-8226): 22.6 µM (inactive)
- GI50 (RXF 393): 22.3 µM (inactive)
- GI50 (RXF 631): 61.2 µM (inactive)
- GI50 (SF-268): 45.1 µM (inactive)
- GI50 (SF-295): 22.2 µM (inactive)
- GI50 (SF-539): > 10 µM (inactive)
- GI50 (SK-MEL-28): 24.1 µM (inactive)
- GI50 (SK-MEL-2): 16.9 µM (inactive)
- GI50 (SK-MEL-5): 16.9 µM (inactive)
- GI50 (SK-OV-3): 48.8 µM (inactive)
- GI50 (SN12C): 26 µM (inactive)
- GI50 (SNB-19): 46.1 µM (inactive)
- GI50 (SNB-75): 33.7 µM (inactive)
- GI50 (SR): 25.5 µM (inactive)
- GI50 (SW-620): 38.1 µM (inactive)
- GI50 (U-251): 21.5 µM (inactive)
- GI50 (UACC-257): 23.6 µM (inactive)
- GI50 (UACC-62): 29.4 µM (inactive)
- GI50 (UO-31): 25.6 µM (inactive)

Compound: COc1cccc2c(SCC(=O)Nc3ccccc3-c3ccccc3NC(=O)CSc3c4ccccc4nc4c(OC)cccc34)c3ccccc3nc12
- GI50 (786-0): > 100 µM (inactive)
- GI50 (A549): > 100 µM (inactive)
- GI50 (ACHN): > 100 µM (inactive)
- GI50 (CCRF-CEM): > 100 µM (inactive)
- GI50 (COLO 205): > 100 µM (inactive)
- GI50 (DLD-1): > 100 µM (inactive)
- GI50 (DMS-114): 29.1 µM (inactive)
- GI50 (DMS-273): 71.3 µM (inactive)
- GI50 (EKVX): 21.7 µM (inactive)
- GI50 (HCC 2998): > 100 µM (inactive)
- GI50 (HCT-116): > 100 µM (inactive)
- GI50 (HCT-15): > 100 µM
- GI50 (HL-60): 9.93 µM (inactive)
- GI50 (HOP-62): > 100 µM (inactive)
- GI50 (HT-29): > 100 µM (inactive)
- GI50 (IGROV-1): 43.1 µM (inactive)
- GI50 (K562): 74.3 µM (inactive)
- GI50 (KM-20L2): > 100 µM (inactive)
- GI50 (KM12): > 100 µM (inactive)
- GI50 (M14): 60.1 µM (inactive)
- GI50 (MOLT-4): > 100 µM (inactive)
- GI50 (NCI-H226): > 100 µM (inactive)
- GI50 (NCI-H23): > 100 µM (inactive)
- GI50 (NCI-H460): > 100 µM (inactive)
- GI50 (OVCAR-3): > 100 µM (inactive)
- GI50 (OVCAR-4): > 100 µM (inactive)
- GI50 (OVCAR-5): > 100 µM (inactive)
- GI50 (OVCAR-8): > 100 µM (inactive)
- GI50 (RXF 393): 57.9 µM (inactive)
- GI50 (RXF 631): 47.6 µM (inactive)
- GI50 (SF-268): 45.4 µM (inactive)
- GI50 (SF-295): > 100 µM (inactive)
- GI50 (SF-539): 60.5 µM (inactive)
- GI50 (SK-MEL-28): > 100 µM (inactive)
- GI50 (SK-MEL-2): > 100 µM (inactive)
- GI50 (SK-MEL-5): > 100 µM (inactive)
- GI50 (SN12C): > 100 µM (inactive)
- GI50 (SNB-19): > 100 µM (inactive)
- GI50 (SNB-75): 17.5 µM (inactive)
- GI50 (SNB-78): > 100 µM (inactive)
- GI50 (SR): 76.9 µM (inactive)
- GI50 (TK-10): > 100 µM (inactive)
- GI50 (U-251): > 100 µM (inactive)
- GI50 (UACC-62): 38.6 µM (inactive)
- GI50 (XF498): 76.6 µM (inactive)
